Species: Rattus norvegicus
Test: DrugMatrix - Regimen: Daily Repeat
Assay type: toxicity, organism-based, Sprague-Dawley
Design: regimen Daily Repeat, gender Male, age 6-8 weeks
Details: in vivo, po, 0 mg/kg, route oral GAVAGE, dose level Control, vehicle .5 % CMC; for BASOPHIL / EOSINOPHIL / ERYTHROCYTE COUNT / HEMATOCRIT / HEMOGLOBIN / LEUKOCYTE COUNT / LYMPHOCYTE / MEAN CORPUSCULAR HEMOGLOBIN / MEAN CORPUSCULAR HEMOGLOBIN CONCENTRATION / MEAN CORPUSCULAR VOLUME / MONOCYTE / NEUTROPHIL / PLATELET COUNT: tissue Blood; for ALANINE AMINOTRANSFERASE / ALBUMIN / ALKALINE PHOSPHATASE / ASPARTATE AMINOTRANSFERASE / BLOOD UREA NITROGEN / CARBON DIOXIDE / CHLORIDE / CHOLESTEROL / CREATINE PHOSPHOKINASE / CREATININE / GLUCOSE / LACTATE DEHYDROGENASE / LIPASE / PHOSPHORUS / POTASSIUM / SODIUM / TOTAL BILIRUBIN / TOTAL PROTEIN / URIC ACID: tissue Plasma

In the case of `Cc1ccc([N+](=O)[O-])cc1` [4-NITROTOLUENE], the BASOPHIL (96 h, time 4 day) is reported as 0.5%, the EOSINOPHIL (96 h, time 4 day) is reported as 1.85% and the “ERYTHROCYTE COUNT” value (96 h, time 4 day) is reported as 6.99 x10E6/uL. The HEMATOCRIT (96 h, time 4 day) was 43.82%, the HEMOGLOBIN (96 h, time 4 day) was 13.87 G/DL and the “LEUKOCYTE COUNT” value (96 h, time 4 day) was 12.01 x10E3/uL. For the same compound, the LYMPHOCYTE (96 h, time 4 day) was 82.07%, the “MEAN CORPUSCULAR HEMOGLOBIN” value (96 h, time 4 day) was 19.8 pg and the “MEAN CORPUSCULAR HEMOGLOBIN CONCENTRATION” value (96 h, time 4 day) was 31.63 G/DL. For the same compound, the “MEAN CORPUSCULAR VOLUME” value (96 h, time 4 day) was 62.7 fL, the MONOCYTE (96 h, time 4 day) was 2.6% and the NEUTROPHIL (96 h, time 4 day) was 12.38%. For the same compound, the “PLATELET COUNT” value (96 h, time 4 day) was 1155 x10E3/uL, the “ALANINE AMINOTRANSFERASE” value (96 h, time 4 day) was 31.67 u/L and the ALBUMIN (96 h, time 4 day) was 4.12 G/DL. For the same compound, the “ALKALINE PHOSPHATASE” value (96 h, time 4 day) was 396 u/L, the “ASPARTATE AMINOTRANSFERASE” value (96 h, time 4 day) was 75.67 u/L and the “BLOOD UREA NITROGEN” value (96 h, time 4 day) was 17.5 mg/dL. For the same compound, the “CARBON DIOXIDE” value (96 h, time 4 day) was 28.83 mmol/L, the CHLORIDE (96 h, time 4 day) was 103.83 MEQ/L and the CHOLESTEROL (96 h, time 4 day) was 84.83 mg/dL. The “CREATINE PHOSPHOKINASE” value (96 h, time 4 day) was 597.17 u/L, the CREATININE (96 h, time 4 day) was 0.3 mg/dL and the GLUCOSE (96 h, time 4 day) was 161.5 mg/dL. The “LACTATE DEHYDROGENASE” value (96 h, time 4 day) was 138.67 u/L, the LIPASE (96 h, time 4 day) was 11.5 u/L and the PHOSPHORUS (96 h, time 4 day) was 11.58 mg/dL. For the same compound, the POTASSIUM (96 h, time 4 day) was 6.87 MEQ/L, the SODIUM (96 h, time 4 day) was 146.83 MEQ/L and the “TOTAL BILIRUBIN” value (96 h, time 4 day) was 0.38 mg/dL. The “TOTAL PROTEIN” value (96 h, time 4 day) was 6.33 G/DL, the “URIC ACID” value (96 h, time 4 day) was 1.37 mg/dL and the BASOPHIL ([…], time 6 day) was 0.37%. The EOSINOPHIL ([…], time 6 day) was 0.38%, the “ERYTHROCYTE COUNT” value ([…], time 6 day) was 6.89 x10E6/uL and the HEMATOCRIT ([…], time 6 day) was 47.38%. The HEMOGLOBIN ([…], time 6 day) was 14.8 G/DL, the “LEUKOCYTE COUNT” value ([…], time 6 day) was 13.59 x10E3/uL and the LYMPHOCYTE ([…], time 6 day) was 80.27%. For the same compound, the “MEAN CORPUSCULAR HEMOGLOBIN” value ([…], time 6 day) was 21.52 pg, the “MEAN CORPUSCULAR HEMOGLOBIN CONCENTRATION” value ([…], time 6 day) was 31.22 G/DL and the “MEAN CORPUSCULAR VOLUME” value ([…], time 6 day) was 68.83 fL. For the same compound, the MONOCYTE ([…], time 6 day) was 2.78%, the NEUTROPHIL ([…], time 6 day) was 15.65% and the “PLATELET COUNT” value ([…], time 6 day) was 1330.17 x10E3/uL. For the same compound, the BASOPHIL ([…], time 14 day) was 0.38%, the EOSINOPHIL ([…], time 14 day) was 0.6% and the “ERYTHROCYTE COUNT” value ([…], time 14 day) was 7.78 x10E6/uL. The HEMATOCRIT ([…], time 14 day) was 48.3%, the HEMOGLOBIN ([…], time 14 day) was 15.42 G/DL and the “LEUKOCYTE COUNT” value ([…], time 14 day) was 13.55 x10E3/uL. The LYMPHOCYTE ([…], time 14 day) was 81.18%, the “MEAN CORPUSCULAR HEMOGLOBIN” value ([…], time 14 day) was 19.8 pg and the “MEAN CORPUSCULAR HEMOGLOBIN CONCENTRATION” value ([…], time 14 day) was 31.92 G/DL. The “MEAN CORPUSCULAR VOLUME” value ([…], time 14 day) was 62.08 fL, the MONOCYTE ([…], time 14 day) was 1.72% and the NEUTROPHIL ([…], time 14 day) was 15.17%. The “PLATELET COUNT” value ([…], time 14 day) was 1083.83 x10E3/uL, the “ALANINE AMINOTRANSFERASE” value ([…], time 6 day) was 36 u/L and the ALBUMIN ([…], time 6 day) was 4.03 G/DL. The “ALKALINE PHOSPHATASE” value ([…], time 6 day) was 354.17 u/L, the “ASPARTATE AMINOTRANSFERASE” value ([…], time 6 day) was 76.5 u/L and the “BLOOD UREA NITROGEN” value ([…], time 6 day) was 19.33 mg/dL. The “CARBON DIOXIDE” value ([…], time 6 day) was 27.83 mmol/L, the CHLORIDE ([…], time 6 day) was 105.5 MEQ/L and the CHOLESTEROL ([…], time 6 day) was 68.83 mg/dL. The “CREATINE PHOSPHOKINASE” value ([…], time 6 day) was 383.83 u/L, the CREATININE ([…], time 6 day) was 0.35 mg/dL and the GLUCOSE ([…], time 6 day) was 165.83 mg/dL. For the same compound, the “LACTATE DEHYDROGENASE” value ([…], time 6 day) was 155.17 u/L, the LIPASE ([…], time 6 day) was 9.83 u/L and the PHOSPHORUS ([…], time 6 day) was 12.4 mg/dL. The POTASSIUM ([…], time 6 day) was 6.9 MEQ/L, the SODIUM ([…], time 6 day) was 147.33 MEQ/L and the “TOTAL BILIRUBIN” value ([…], time 6 day) was 0.52 mg/dL. The “TOTAL PROTEIN” value ([…], time 6 day) was 6.42 G/DL, the “URIC ACID” value ([…], time 6 day) was 1.6 mg/dL and the “ALANINE AMINOTRANSFERASE” value ([…], time 14 day) was 36.83 u/L. For the same compound, the ALBUMIN ([…], time 14 day) was 4.13 G/DL, the “ALKALINE PHOSPHATASE” value ([…], time 14 day) was 328.17 u/L and the “ASPARTATE AMINOTRANSFERASE” value ([…], time 14 day) was 74.83 u/L. The “BLOOD UREA NITROGEN” value ([…], time 14 day) was 18.67 mg/dL, the “CARBON DIOXIDE” value ([…], time 14 day) was 29.33 mmol/L and the CHLORIDE ([…], time 14 day) was 105.17 MEQ/L. The CHOLESTEROL ([…], time 14 day) was 72 mg/dL, the “CREATINE PHOSPHOKINASE” value ([…], time 14 day) was 217.67 u/L and the CREATININE ([…], time 14 day) was 0.45 mg/dL. The GLUCOSE ([…], time 14 day) was 151.17 mg/dL, the “LACTATE DEHYDROGENASE” value ([…], time 14 day) was 133.17 u/L and the LIPASE ([…], time 14 day) was 14.5 u/L. For the same compound, the PHOSPHORUS ([…], time 14 day) was 11.55 mg/dL, the POTASSIUM ([…], time 14 day) was 6.77 MEQ/L and the SODIUM ([…], time 14 day) was 149.33 MEQ/L. For the same compound, the “TOTAL BILIRUBIN” value ([…], time 14 day) was 0.37 mg/dL, the “TOTAL PROTEIN” value ([…], time 14 day) was 6.62 G/DL and the “URIC ACID” value ([…], time 14 day) was 1.57 mg/dL.

Source: ChEMBL document CHEMBL3885881, “DrugMatrix”
